Measured values taken from patent USRE42462E1, “Carboxylic acid derivatives, their preparation and use” (Abbott GmbH & Co. KG, priority 1995, dated 2011).

How the values were obtained:
[1] = target: T1, ETB receptors (Cavia porcellus, UniProt H0VTF3); assay: ETB receptor binding assay ([125I]-RZ3, guinea pig cerebellar membranes); conditions: 25 pM [125I]-RZ3, 25° C., 30 min
T1 construct: Guinea pig cerebella were homogenized in a Potter-Elvejhem homogenizer; from tissue; host or cells: guinea pig cerebellum membranes
T1 sequence (H0VTF3 27-415): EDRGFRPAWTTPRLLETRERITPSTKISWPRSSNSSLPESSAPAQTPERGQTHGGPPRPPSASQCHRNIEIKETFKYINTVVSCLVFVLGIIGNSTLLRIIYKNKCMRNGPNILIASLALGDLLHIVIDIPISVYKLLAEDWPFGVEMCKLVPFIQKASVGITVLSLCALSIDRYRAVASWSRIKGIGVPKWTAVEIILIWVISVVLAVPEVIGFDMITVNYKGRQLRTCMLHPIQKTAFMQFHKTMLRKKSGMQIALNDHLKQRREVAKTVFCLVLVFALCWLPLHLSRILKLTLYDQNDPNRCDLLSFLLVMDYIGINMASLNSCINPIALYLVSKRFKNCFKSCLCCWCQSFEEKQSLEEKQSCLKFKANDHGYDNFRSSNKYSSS
Experimental: Guinea pig cerebella were homogenized in a Potter-Elvejhem homogenizer and [lacuna] obtained by differential centrifugation at 1000×g for 10 min and repeated centrifugation of the supernatant at 20,000×g for 10 min.

[2] = target: T2, Cloned human ETA receptor (Homo sapiens, UniProt P25101); assay: ETA receptor binding assay ([125I]-ET1, membranes of CHO cells); conditions: 25 pM [125I]-ET1, 25° C., 30 min
T2 construct: expressed in transfected cells; host or cells: CHO cells
T2 sequence (P25101 21-427): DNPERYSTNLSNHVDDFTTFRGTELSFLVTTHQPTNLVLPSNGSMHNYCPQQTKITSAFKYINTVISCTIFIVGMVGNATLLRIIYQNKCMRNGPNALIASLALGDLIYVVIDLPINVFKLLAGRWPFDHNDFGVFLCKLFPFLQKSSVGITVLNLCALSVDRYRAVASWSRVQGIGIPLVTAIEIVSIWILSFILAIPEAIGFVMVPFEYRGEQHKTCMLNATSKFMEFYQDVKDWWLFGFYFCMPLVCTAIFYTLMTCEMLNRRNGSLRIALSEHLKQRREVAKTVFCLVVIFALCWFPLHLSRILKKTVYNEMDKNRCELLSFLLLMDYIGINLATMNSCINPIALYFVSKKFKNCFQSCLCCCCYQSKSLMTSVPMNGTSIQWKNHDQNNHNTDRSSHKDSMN
Experimental: Cloned human ETA receptor-expressing CHO cells and guinea pig cerebellar membranes with >60% ETB compared with ETA receptors were used for binding studies.
The ETA receptor-expressing CHO cells were grown in F12 medium containing 10% fetal calf serum, 1% glutamine, 100 U/ml penicillin and 0.2% streptomycin (Gibco BRL, Gaithersburg, Md., USA).
After 48 h, the cells were washed with PBS and incubated with 0.05% trypsin-containing PBS for 5 min. Neutralization was then carried out with F12 medium, and the cells were collected by centrifugation at 300×g. To lyze lyse the cells, the pellet was briefly washed with lysis buffer (5 mM Tris-IICl, pII 7.4 with 10% glycerol) and then incubated at a concentration of 10^7 cells/ml of lysis buffer at 4° C. for 30 min. The membranes were centrifuged at 20,000×g for 10 min, and the pellet was stored in liquid nitrogen.
For the ETA and ETB receptor binding assay, the membranes were suspended in incubation buffer (50 mM Tris-HCl, pH 7.4 with 5 mM MnCl2, 40 μg/ml bacitracin and 0.2% BSA) at a concentration of 50 μg of protein per assay mixture and incubated with 25 pM [125I] [^125I]-ET1 (ETA receptor assay) or 25 pM [125I] [^125I]-RZ3 (ETB receptor assay) in the presence and absence of test substance at 25° C. The nonspecific binding was determined using 10^--7 10^−7 M ET1. After 30 min, the free and bound radioligand were separated by filtration through GF/B glass fiber filters (Whatman, England) on a Skatron cell collector (Skatron, Lier, Norway) and the filters were washed with ice-cold Tris-HCl buffer, pH 7.4 with 0.2% BSA. The radioactivity collected on the filters was quantified using a Packard 2200 CA liquid scintillation counter.

Row | SMILES | Ki [1] [µM] | Ki [2] [µM] | melting point [°C]
1 | COc1cc(OC)nc(OC(C(=O)O)C(OC)(c2ccccc2)c2ccccc2)n1 (stereo not drawn) [Compound I-2] | 0.034 | – | –
2 | CCOC(c1ccccc1)(c1ccccc1)C(Oc1nc(OC)cc(OC)n1)C(=O)O (stereo not drawn) [Compound I-4] | 2.5 | – | –
3 | COc1cc(OC)nc(OC(C(=O)O)C(OC(C)C)(c2ccccc2)c2ccccc2)n1 (stereo not drawn) [Compound I-5] | 0.16 | 0.012 | –
4 | CCCOC(c1ccccc1)(c1ccccc1)C(Oc1nc(OC)cc(OC)n1)C(=O)O (stereo not drawn) [Compound I-12] | 1.7 | – | –
5 | COc1cc(OC)nc(OC(C(=O)O)C(OCCCC(C)C)(c2ccccc2)c2ccccc2)n1 (stereo not drawn) [Compound I-23] | 1.1 | 0.209 | –
6 | COc1cc(OC)nc(OC(C(=O)O)C(OCC2CC2)(c2ccccc2)c2ccccc2)n1 (stereo not drawn) [Compound I-26] | 2 | 0.023 | –
7 | COc1cc(OC)nc(OC(C(=O)O)C(Oc2ccccc2)(c2ccccc2)c2ccccc2)n1 (stereo not drawn) [Compound I-29] | 0.18 | 0.086 | –

Next, values leading:

Row | Ki [1] [µM] | Ki [2] [µM] | melting point [°C] | SMILES
8 | 1.5 | 0.15 | – | COc1cc(OC)nc(OC(C(=O)O)C(OCc2ccccc2)(c2ccccc2)c2ccccc2)n1 (stereo not drawn) [Compound I-47]
9 | – | 0.001 | – | COc1nc(OC(C(=O)O)C(OC)(c2ccccc2)c2ccccc2)nc2c1CCO2 (stereo not drawn) [Compound I-87]
10 | 0.056 | 0.0006 | – | COc1nc(OC(C(=O)O)C(OC)(c2ccccc2)c2ccccc2)nc2c1CCC2 (stereo not drawn) [Compound I-96]
11 | – | 0.0004 | – | COc1cc(C)nc(OC(C(=O)O)C(OC)(c2ccccc2)c2ccccc2)n1 (stereo not drawn) [Compound I-103]
12 | 0.485 | 0.003 | – | COc1cc(OC)nc(OC(C(=O)O)C(SC)(c2ccccc2)c2ccccc2)n1 (stereo not drawn) [Compound I-107]
13 | – | – | 143 to 147 | COc1nc(OC(C(=O)OCc2ccccc2)C(OC)(c2ccccc2)c2ccccc2)nc2c1CCC2 (stereo not drawn) [Example 12, Benzyl 3-methoxy-2-(4-methoxy-6,7-dihydro-5H-cyclopentapyrimidin-2-yloxy)-3,3-diphenylpropionate]
14 | 9.3 | 0.086 | – | COc1nc(OC(C(=O)O)C(OC)(c2ccccc2)c2ccccc2)nc2c1ccn2C (stereo not drawn) [I.89]
15 | 2.3 | 0.028 | 96 to 98 | COc1cc(OC)nc(OC(C(=O)O)C2(OC)c3ccccc3-c3ccccc32)n1 (stereo not drawn) [II-1]
16 | 7.3 | 0.107 | – | COc1cc(OC)nc(OC(C(=O)O)C2(OC)c3ccccc3CCc3ccccc32)n1 (stereo not drawn) [II-3]
